Values after ≈ are worked out from the molar mass of the structure shown.
Key:
Assay type in all cases: cell-based
[1] = system: Aspergillus flavus AFL1 (ATCC MYA-3631); experiment: Fungal MIC Protocol, Aspergillus flavus; details: 100% growth inhibition at 48 hours; for MIC: Aspergillus flavus, read-out: MIC Aspergillus flavus 3631
How it was run: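 The MIC against Aspergillus flavus was measured by broth microdilution in RPMI/MOPS medium at pH 7.0. Compounds were diluted to 200 ug/mL from DMSO stocks, then ten serial dilutions were tested in duplicate in round bottom 96-well plates. Spores adjusted to a final OD530 of 0.002 were added, with no-cell and no-compound control wells, and plates were incubated 48 hours at 35° C.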

[2] = system: Aspergillus fumigatus T33439 (ATCC MYA-3626); experiment: Fungal MIC Protocol, Aspergillus fumigatus; details: 100% growth inhibition at 48 hours; for MIC: Aspergillus fumigatus, read-out: MIC Aspergillus fumigatus 3626
How it was run: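 This broth microdilution MIC test used RPMI/MOPS medium at pH 7.0 with glucose. Compounds were diluted from DMSO stock to 200 ug/mL and serially diluted ten times in 96-well round bottom plates. Equal volumes of compound and Aspergillus spore suspension at OD530 0.002 were combined, with controls of compound without cells and spores without compound. Plates were bagged and incubated at 35° C. for 48 hours.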

[3] = system: Fusarium falciforme FS1 (ATCC MYA-3636); experiment: Fungal MIC Protocol, Fusarium falciforme; details: 100% growth inhibition at 48 hours; for MIC: Fusarium falciforme, read-out: MIC Fusarium falciforme 3636
How it was run: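 MIC against Fusarium falciforme was determined by broth microdilution in RPMI/MOPS medium containing glucose. Compounds started at 200 ug/mL and were serially diluted ten times, then combined with harvested spores adjusted to an OD530 of 0.005. Controls held compound without cells and spores without compound. Plates were bagged and incubated at 35° C. for 48 hours.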

[4] = system: Fusarium solani (ATCC 58877); experiment: Fungal MIC Protocol, Fusarium solani; details: 100% growth inhibition at 48 hours; for MIC: Fusarium solani, ATCC58877, read-out: MIC Fusarium solani 58877
How it was run: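 Broth microdilution MIC test against Fusarium solani in RPMI/MOPS medium at pH 7.0. Compounds from DMSO stock were diluted to 200 ug/mL, then serially diluted ten times and plated in duplicate at 50 μl per well. 50 ul of spore suspension at OD530 0.005 was added. Controls had compound without cells and spores without compound. Plates were mixed gently, bagged, and incubated at 35° C. for 48 hours.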

[5] = system: Mucor circinelloides 1463(62) (ATCC 26759); experiment: Fungal MIC Protocol, Mucor circinelloides (MIC-50); details: 50% growth inhibition at 48 hours; for MIC50: Mucor circinelloides, ATCC26759, read-out: MIC-50 Mucorales circinelloides 26579
How it was run: (§1)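 MIC-type endpoint: >50% growth inhibition, judged by eye with an inverted mirror. Spores in RPMI/MOPS (pH 7.0, ~2×10^4 cfu/mL) were incubated 48 hours at 35° C with duplicate serial compound dilutions.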

[6] = system: Mucor ramosissimus 057718 (ATCC 90286); experiment: Fungal MIC Protocol, Mucor ramosissimus (MIC-50); details: 50% growth inhibition at 48 hours; for MIC50: Mucor ramosissimus, ATCC90286, read-out: MIC-50 Mucorales ramosissimus 90286
How it was run: as §1

Candida albicans GDH2346 = experiment: Candida Minimal Inhibitory Concentration (MIC); details: 50% growth inhibition at 48 hours; for MIC50: Candida albicans, GDH2346, read-out: MIC-50 Candida albicans GDH2346
How it was run: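 Twofold serial dilutions from 200 μg/mL in RPMI 1640/MOPS with glucose, pH 7.0, tested in duplicate against yeast from an OD600 1.0 suspension diluted 1:1000. Incubated at 35° C; OD600 read at 24 and 48 h.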

Compound	MIC [1] [µg/mL]	MIC [2] [µg/mL]	MIC [3] [µg/mL]	MIC [4] [µg/mL]	MIC50 [5] [µg/mL]	MIC50 [6] [µg/mL]	MIC50 (Candida albicans GDH2346) [µg/mL]	MIC Aspergillus flavus 3631 [1] [µg·mL]	MIC Aspergillus fumigatus 3626 [2] [µg·mL]	MIC Fusarium falciforme 3636 [3] [µg·mL]	MIC Fusarium solani 58877 [4] [µg·mL]	MIC-50 Mucorales circinelloides 26579 [5] [µg/mL]	MIC-50 Mucorales ramosissimus 90286 [6] [µg/mL]	MIC-50 Candida albicans GDH2346 (Candida albicans GDH2346) [µg/mL]
Cc1cc(C2=CCN(C(=N)N)CC2)ccc1-n1nnc(-c2ccc(C3=CCN(C(=N)N)CC3)cc2)c1C [Example 32, 4-(4-(1-(4-(1-Carbamimidoyl-1,2,3,6-tetrahydropyridin-4-yl)-2-methylphenyl)-5-methyl-1H-1,2,3-triazol-4-yl)phenyl)-5,6-dihydropyridine-1(2H)-carboximidamide]	0.39 (≈ 0.787 µM)	0.78 (≈ 1.57 µM)	< 0.1	0.78 (≈ 1.57 µM)	0.78 (≈ 1.57 µM)	6.25 (≈ 12.6 µM)	0.08 (≈ 0.161 µM)	–	–	–	–	–	–	–
Cc1cc(-n2cc(-c3ccc(C4=CCN(C(=N)N)CC4)cc3)nn2)ccc1C1=CCN(C(=N)N)CC1 [Example 35, 4-(4-(1-(4-(1-Carbamimidoyl-1,2,3,6-tetrahydropyridin-4-yl)-3-methylphenyl)-1H-1,2,3-triazol-4-yl)phenyl)-5,6-dihydropyridine-1(2H)-carboximidamide]	0.39 (≈ 0.81 µM)	1.56 (≈ 3.24 µM)	< 0.1	1.56 (≈ 3.24 µM)	0.39 (≈ 0.81 µM)	25 (≈ 51.9 µM)	0.39 (≈ 0.81 µM)	–	–	–	–	–	–	–
Cc1cc(-c2cn(-c3ccc(C4=CCN(C(=N)N)CC4)cc3)nn2)ccc1C1=CCN(C(=N)N)CC1 [Example 37, 4-(4-(4-(4-(1-Carbamimidoyl-1,2,3,6-tetrahydropyridin-4-yl)-3-methylphenyl)-1H-1,2,3-triazol-1-yl)phenyl)-5,6-dihydropyridine-1(2H)-carboximidamide]	0.2 (≈ 0.415 µM)	0.39 (≈ 0.81 µM)	0.39 (≈ 0.81 µM)	0.39 (≈ 0.81 µM)	0.39 (≈ 0.81 µM)	6.25 (≈ 13 µM)	0.78 (≈ 1.62 µM)	–	–	–	–	–	–	–
Cn1nc(-c2ccc(C3=CCN(C(=N)N)CC3)cc2)nc1-c1ccc(C2=CCN(C(=N)N)CC2)cc1 [Example 38, 4,4′-(4,4′-(1-Methyl-1H-1,2,4-triazole-3,5-diyl)bis(4,1-phenylene)) bis(5,6-dihydropyridine-1(2H)-carboximidamide)]	–	–	–	–	–	–	–	0.16	0.2	0.2	<0.1	3.13 (≈ 6.5 µM)	0.78 (≈ 1.62 µM)	6.25 (≈ 13 µM)

The remaining compounds from weak to strong by MIC [1], led by results:

MIC [1] [µg/mL]	MIC [2] [µg/mL]	MIC [3] [µg/mL]	MIC [4] [µg/mL]	MIC50 [5] [µg/mL]	MIC50 [6] [µg/mL]	MIC50 (Candida albicans GDH2346) [µg/mL]	MIC Aspergillus flavus 3631 [1] [µg·mL]	MIC Aspergillus fumigatus 3626 [2] [µg·mL]	MIC Fusarium falciforme 3636 [3] [µg·mL]	MIC Fusarium solani 58877 [4] [µg·mL]	MIC-50 Mucorales circinelloides 26579 [5] [µg/mL]	MIC-50 Mucorales ramosissimus 90286 [6] [µg/mL]	MIC-50 Candida albicans GDH2346 (Candida albicans GDH2346) [µg/mL]	Compound
0.2 (≈ 0.415 µM)	0.2 (≈ 0.415 µM)	< 0.1	0.39 (≈ 0.81 µM)	0.39 (≈ 0.81 µM)	25 (≈ 51.9 µM)	0.16 (≈ 0.332 µM)	–	–	–	–	–	–	–	Cc1cc(C2=CCN(C(=N)N)CC2)ccc1-n1cc(-c2ccc(C3=CCN(C(=N)N)CC3)cc2)nn1 [Example 34, 4-(4-(1-(4-(1-Carbamimidoyl-1,2,3,6-tetrahydropyridin-4-yl)-2-methylphenyl)-1H-1,2,3-triazol-4-yl)phenyl)-5,6-dihydropyridine-1(2-H)-carboximidamide]
0.2 (≈ 0.415 µM)	0.2 (≈ 0.415 µM)	0.1 (≈ 0.208 µM)	0.2 (≈ 0.415 µM)	0.78 (≈ 1.62 µM)	3.13 (≈ 6.5 µM)	0.39 (≈ 0.81 µM)	–	–	–	–	–	–	–	Cc1cc(C2=CCN(C(=N)N)CC2)ccc1-c1cn(-c2ccc(C3=CCN(C(=N)N)CC3)cc2)nn1 [Example 36, 4-(4-(4-(4-(1-Carbamimidoyl-1,2,3,6-tetrahydropyridin-4-yl)-2-methylphenyl)-1H-1,2,3-triazol-1-yl)phenyl)-5,6-dihydropyridine-1(2H)-carboximidamide]
0.04 (≈ 0.0807 µM)	0.63 (≈ 1.27 µM)	0.05 (≈ 0.101 µM)	0.025 (≈ 0.0504 µM)	3.13 (≈ 6.32 µM)	12.5 (≈ 25.2 µM)	0.08 (≈ 0.161 µM)	–	–	–	–	–	–	–	Cc1cc(-n2nnc(-c3ccc(C4=CCN(C(=N)N)CC4)cc3)c2C)ccc1C1=CCN(C(=N)N)CC1 [Example 33, 4-(4-{4-[4-(1-Carbamimidoyl-1,2,3,6-tetrahydropyridin-4-yl)phenyl]-5-methyl-1H-1,2,3-triazol-1-yl}-2-methylphenyl)-1,2,3,6-tetrahydropyridne-1-carboximidamide]
